Measured values taken from PubChem BioAssay AID330 (DTP/NCI, 2004).
“And” between values parts separate entries of the source, which are not always exact repeats. Equal values may be shown once. Toxic doses and inconclusive results are not listed.

Test system: P388 leukemia ip, CD2F1 mice, survival T/C
Test: NCI In Vivo Anticancer Drug Screen. Data for tumor model P388 Leukemia (intraperitoneal) in CD2F1 (CDF1) mice
Settings: endpoint: median survival time, higher = longer survival
In short: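 Mice carrying the transplanted tumor received test compound or vehicle. Survival was recorded in each group, and the value is the treated-group measurement divided by that of the vehicle-treated control group.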

[1] = dose: 50.0 mg/kg/injection, schedule: Q01DX009 (ip), vehicle: Klucel (hydroxypropylcellulose) (HPC)
[2] = dose: 100.0 mg/kg/injection, schedule: Q01DX009 (ip), vehicle: Klucel (hydroxypropylcellulose) (HPC)
[3] = dose: 50.0 mg/kg/injection, schedule: Q01DX005 (ip), vehicle: saline
[4] = dose: 100.0 mg/kg/injection, schedule: Q01DX005 (ip), vehicle: saline
[5] = dose: 200.0 mg/kg/injection, schedule: Q01DX005 (ip), vehicle: saline
[6] = dose: 50.0 mg/kg/injection, schedule: Q01DX005 (ip), vehicle: saline with Tween-80
[7] = dose: 100.0 mg/kg/injection, schedule: Q01DX005 (ip), vehicle: saline with Tween-80
[8] = dose: 200.0 mg/kg/injection, schedule: Q01DX005 (ip), vehicle: saline with Tween-80
[9] = dose: 50.0 mg/kg/injection, schedule: Q01DX005 (ip), vehicle: Klucel (hydroxypropylcellulose) (HPC)
[10] = dose: 100.0 mg/kg/injection, schedule: Q01DX005 (ip), vehicle: Klucel (hydroxypropylcellulose) (HPC)
[11] = dose: 200.0 mg/kg/injection, schedule: Q01DX005 (ip), vehicle: Klucel (hydroxypropylcellulose) (HPC)
[12] = dose: 50.0 mg/kg/injection, schedule: Q01DX009 (ip), vehicle: saline
[13] = dose: 100.0 mg/kg/injection, schedule: Q01DX009 (ip), vehicle: saline
[14] = dose: 200.0 mg/kg/injection, schedule: Q01DX009 (ip), vehicle: saline
[15] = dose: 100.0 mg/kg/injection, schedule: Q04DX003 (ip), vehicle: saline with Tween-80
[16] = dose: 200.0 mg/kg/injection, schedule: Q04DX003 (ip), vehicle: saline with Tween-80
[17] = dose: 400.0 mg/kg/injection, schedule: Q04DX003 (ip), vehicle: saline with Tween-80
[18] = dose: 100.0 mg/kg/injection, schedule: Q04DX003 (ip), vehicle: saline
[19] = dose: 200.0 mg/kg/injection, schedule: Q04DX003 (ip), vehicle: saline
[20] = dose: 50.0 mg/kg/injection, schedule: Q04DX003 (ip), vehicle: other
[21] = dose: 100.0 mg/kg/injection, schedule: Q04DX003 (ip), vehicle: other

SMILES: COc1ccc2cc1Oc1ccc(cc1)CC1c3cc(OC)c(OC)c(c3CCN1C)Oc1c(O)c(OC)cc3c1C(C2)N(C)CC3 (configuration not stated)
- T/C (dose: 20.0 mg/kg/injection, schedule: Q01DX009 (ip), vehicle: Klucel (hydroxypropylcellulose) (HPC)): 109 % of control
- T/C (dose: 40.0 mg/kg/injection, schedule: Q01DX009 (ip), vehicle: Klucel (hydroxypropylcellulose) (HPC)): 108 % of control
- T/C (dose: 80.0 mg/kg/injection, schedule: Q01DX009 (ip), vehicle: Klucel (hydroxypropylcellulose) (HPC)): 101 % of control
- T/C (dose: 160.0 mg/kg/injection, schedule: Q01DX009 (ip), vehicle: Klucel (hydroxypropylcellulose) (HPC)): 113 % of control

SMILES: CCCSc1nc2ccc(NC(=O)/C=C/C(=O)O)cc2s1
- T/C [1]: 107 % of control
- T/C [2]: 96 % of control
- T/C (dose: 200.0 mg/kg/injection, schedule: Q01DX009 (ip), vehicle: Klucel (hydroxypropylcellulose) (HPC)): 103 % of control

SMILES: CCOC(C)(OCC)N(C)C
- T/C [3]: 101 % of control
- T/C [4]: 108 % of control
- T/C [5]: 111 % of control

SMILES: COc1ccc(C2C(S(=O)(=O)c3ccccc3)CON2c2ccccc2)cc1 (configuration not stated)
- T/C [6]: 97 % of control
- T/C [7]: 96 % of control
- T/C [8]: 89 % of control

SMILES: C[C@@H]1C[C@@]2(C)[C@@H](CC[C@@H]3[C@@H]2CC[C@]2(C)[C@@H](O)CC[C@@H]32)CC1=O
- T/C (dose: 100.0 mg/kg/injection, schedule: Q04DX003 (ip), vehicle: Klucel (hydroxypropylcellulose) (HPC)): 100 % of control
- T/C (dose: 200.0 mg/kg/injection, schedule: Q04DX003 (ip), vehicle: Klucel (hydroxypropylcellulose) (HPC)): 100 % of control

SMILES: COc1cc(C2SCC(=O)N2c2nnc(C)s2)cc(OC)c1OC (configuration not stated)
- T/C [9]: 97 % of control
- T/C [10]: 89 % of control
- T/C [11]: 89 % of control

SMILES: C=CC(=O)NC(C)C(=O)O (configuration not stated)
- T/C [12]: 100 % of control
- T/C [13]: 99 % of control
- T/C [14]: 107 % of control

SMILES: O=C(C=C(C(F)(F)F)C(F)(F)F)c1c2ccccc2cc2ccccc12
- T/C (dose: 0.78 mg/kg/injection, schedule: Q01DX009 (ip), vehicle: DMSO): 91 % of control
- T/C (dose: 1.56 mg/kg/injection, schedule: Q01DX009 (ip), vehicle: DMSO): 98 % of control
- T/C (dose: 3.12 mg/kg/injection, schedule: Q01DX009 (ip), vehicle: DMSO): 87 % of control and 89 % of control

SMILES: COc1ccc(CSCc2c(CSCc3ccc(OC)c(OC)c3)c(CSCc3ccc(OC)c(OC)c3)c(CSCc3ccc(OC)c(OC)c3)c(CSCc3ccc(OC)c(OC)c3)c2CSCc2ccc(OC)c(OC)c2)cc1OC
- T/C [15]: 96 % of control
- T/C [16]: 90 % of control
- T/C [17]: 102 % of control

SMILES: CC1(n2[nH]c(=O)n(-c3ccccc3)c2=O)Cn2c(=O)n(-c3ccccc3)c(=O)n2-c2ccccc21 (configuration not stated)
- T/C [9]: 101 % of control
- T/C [10]: 96 % of control
- T/C [11]: 108 % of control

SMILES: CNc1cc(=O)[nH]c(-c2ccccc2)n1
- T/C (dose: 45.0 mg/kg/injection, schedule: Q01DX009 (ip), vehicle: saline with Tween-80): 89 % of control
- T/C (dose: 90.0 mg/kg/injection, schedule: Q01DX009 (ip), vehicle: saline with Tween-80): 97 % of control
- T/C (dose: 180.0 mg/kg/injection, schedule: Q01DX009 (ip), vehicle: saline with Tween-80): 105 % of control

SMILES: Cc1cccnc1NC1OC(=O)c2ccccc21 (configuration not stated)
- T/C (dose: 50.0 mg/kg/injection, schedule: Q01DX009 (ip), vehicle: saline with Tween-80): 100 % of control
- T/C (dose: 100.0 mg/kg/injection, schedule: Q01DX009 (ip), vehicle: saline with Tween-80): 96 % of control

SMILES: COCCOC(C)C(=O)C(O)S(=O)(=O)O (configuration not stated)
- T/C [13]: 109 % of control
- T/C [18]: 100 % of control
- T/C [19]: 100 % of control
- T/C (dose: 400.0 mg/kg/injection, schedule: Q01DX009 (ip), vehicle: saline): 154 % of control
- T/C (dose: 400.0 mg/kg/injection, schedule: Q04DX003 (ip), vehicle: saline): 107 % of control

SMILES: c1ccc(CON(CCc2ccccn2)CCc2ccccn2)cc1
- T/C [3]: 97 % of control
- T/C [4]: 98 % of control
- T/C [5]: 98 % of control

SMILES: COc1ccc2cc(Cl)c3ccccc3c2c1
- T/C [6]: 87 % of control
- T/C [7]: 90 % of control
- T/C [8]: 86 % of control

SMILES: O=NN(CCCl)C(=O)NC1C2CC3CC(C2)CC1C3 (configuration not stated)
- T/C (dose: 1.78 mg/kg/injection, schedule: Q01DX009 (ip), vehicle: other): 118 % of control
- T/C (dose: 2.2 mg/kg/injection, schedule: Q04DX003 (ip), vehicle: other): 104 % of control
- T/C (dose: 2.66 mg/kg/injection, schedule: Q01DX009 (ip), vehicle: other): 116 % of control
- T/C (dose: 3.3 mg/kg/injection, schedule: Q04DX003 (ip), vehicle: other): 118 % of control
- T/C (dose: 4.0 mg/kg/injection, schedule: Q01DX009 (ip), vehicle: other): 169 % of control
- T/C (dose: 6.0 mg/kg/injection, schedule: Q01DX009 (ip), vehicle: other): 225 % of control
- T/C (dose: 7.5 mg/kg/injection, schedule: Q04DX003 (ip), vehicle: other): 177 % of control
- T/C (dose: 12.5 mg/kg/injection, schedule: Q04DX003 (ip), vehicle: other): 180 % of control
- T/C (dose: 25.0 mg/kg/injection, schedule: Q04DX003 (ip), vehicle: other): 300 % of control
- T/C [20]: 300 % of control
- T/C [21]: 105 % of control

SMILES: CC(N)CN1CC(C)N=C1c1ccncc1 (configuration not stated)
- T/C [12]: 102 % of control
- T/C [13]: 98 % of control
- T/C [14]: 99 % of control

SMILES: CC(=O)C(N=Nc1ccc(S(=O)(=O)N=C(N)N)cc1)C(C)=O
- T/C [15]: 90 % of control
- T/C [16]: 88 % of control
- T/C [17]: 87 % of control

SMILES: COc1ccc2c(N)c3c4ccccc4cc[n+]3cc2c1OC
- T/C (dose: 3.13 mg/kg/injection, schedule: Q04DX003 (ip), vehicle: water): 106 % of control and 112 % of control
- T/C (dose: 6.25 mg/kg/injection, schedule: Q04DX003 (ip), vehicle: water): 106 % of control and 114 % of control
- T/C (dose: 12.5 mg/kg/injection, schedule: Q04DX003 (ip), vehicle: water): 112 % of control
- T/C (dose: 25.0 mg/kg/injection, schedule: Q04DX003 (ip), vehicle: water): 121 % of control

SMILES: CCOc1cc2c(C)c3ccccc3c(C)c2c2ccccc12
- T/C (dose: 42.0 mg/kg/injection, schedule: Q01DX009 (ip), vehicle: saline with Tween-80): 98 % of control
- T/C [20]: 88 % of control
- T/C (dose: 84.0 mg/kg/injection, schedule: Q01DX009 (ip), vehicle: saline with Tween-80): 94 % of control
- T/C [21]: 86 % of control
- T/C (dose: 168.0 mg/kg/injection, schedule: Q01DX009 (ip), vehicle: saline with Tween-80): 107 % of control
- T/C (dose: 400.0 mg/kg/injection, schedule: Q04DX003 (ip), vehicle: other): 86 % of control

SMILES: Nc1nc2ccc(CNc3ccc(C(=O)NC(CC(=O)O)C(=O)O)cc3)cc2c(=O)[nH]1 (configuration not stated)
- T/C (dose: 12.5 mg/kg/injection, schedule: Q01DX009 (ip), vehicle: Klucel (hydroxypropylcellulose) (HPC)): 100 % of control
- T/C (dose: 25.0 mg/kg/injection, schedule: Q01DX009 (ip), vehicle: Klucel (hydroxypropylcellulose) (HPC)): 96 % of control
- T/C [1]: 99 % of control and 103 % of control
- T/C [2]: 116 % of control

SMILES: Cc1cc[n+](CCC(N)=O)cc1
- T/C [18]: 100 % of control
- T/C [19]: 100 % of control

SMILES: CC(=O)OCC1OC(n2nnc3c(=O)[nH]cnc32)C(OC(C)=O)C(OC(C)=O)C1OC(C)=O (configuration not stated)
- T/C (dose: 100.0 mg/kg/injection, schedule: Q01DX001 (ip), vehicle: saline with Tween-80): 96 % of control
- T/C (dose: 200.0 mg/kg/injection, schedule: Q01DX001 (ip), vehicle: saline with Tween-80): 102 % of control
- T/C (dose: 400.0 mg/kg/injection, schedule: Q01DX001 (ip), vehicle: saline with Tween-80): 94 % of control

SMILES: O=C1COC(C(=O)c2ccccc2)C(=O)N1 (configuration not stated)
- T/C (dose: 60.0 mg/kg/injection, schedule: Q01DX005 (ip), vehicle: saline with Tween-80): 98 % of control
- T/C (dose: 120.0 mg/kg/injection, schedule: Q01DX005 (ip), vehicle: saline with Tween-80): 95 % of control
- T/C (dose: 240.0 mg/kg/injection, schedule: Q01DX005 (ip), vehicle: saline with Tween-80): 95 % of control

SMILES: CC(C)=C(C#N)N(C)C(C)(C)C
- T/C [12]: 100 % of control
- T/C [13]: 97 % of control
